Reference: ChEMBL document CHEMBL1156592, “4-(1H-indazol-5-yl)-6-phenylpyrimidin-2(1H)-one analogs as potent CDC7 inhibitors” (Bioorg Med Chem Lett, 2008)

Key:
[1] = Metabolic stability in mouse microsomes assessed as half life; format: ADME, Microsome
[2] = target: Cell division cycle 7-related protein kinase (Homo sapiens, UniProt O00311); assay: Inhibition of CDC7-DBF4
A549 = assay: Growth inhibition of human A549 cells; format: functional

Chain of Cell division cycle 7-related protein kinase (O00311 whole entry): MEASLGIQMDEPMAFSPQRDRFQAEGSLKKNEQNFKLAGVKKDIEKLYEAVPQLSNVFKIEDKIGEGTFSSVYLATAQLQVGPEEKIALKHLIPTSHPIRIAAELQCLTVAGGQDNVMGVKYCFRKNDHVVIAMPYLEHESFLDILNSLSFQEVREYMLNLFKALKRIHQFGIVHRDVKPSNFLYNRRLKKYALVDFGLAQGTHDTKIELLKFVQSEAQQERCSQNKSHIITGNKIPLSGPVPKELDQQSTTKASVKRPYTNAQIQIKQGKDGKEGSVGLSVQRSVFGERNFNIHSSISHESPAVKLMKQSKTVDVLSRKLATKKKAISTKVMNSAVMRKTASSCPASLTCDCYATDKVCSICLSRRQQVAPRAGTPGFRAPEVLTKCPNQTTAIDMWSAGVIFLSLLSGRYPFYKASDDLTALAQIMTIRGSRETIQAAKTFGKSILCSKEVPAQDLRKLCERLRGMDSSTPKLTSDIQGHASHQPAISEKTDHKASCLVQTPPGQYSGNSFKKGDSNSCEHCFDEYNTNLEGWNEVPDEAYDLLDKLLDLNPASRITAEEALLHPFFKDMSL

SMILES	half-life [1] [min]	IC50 [2] [nM]	GI50 (A549) [nM]
O=c1nc(-c2ccc3[nH]ncc3c2)cc(-c2ccc(OCc3ccccc3)cc2)[nH]1	–	350	–
COc1ccc(-c2cc(-c3ccnc(N(C)C)c3)nc(=O)[nH]2)c(OC)c1	–	7300	–
Cc1cc(-c2cc(-c3ccccc3)[nH]c(=O)n2)ccc1O	–	–	> 10000
O=c1nc(-c2ccc3[nH]ncc3c2)cc(-c2cccc(F)c2)[nH]1	–	150	–
COc1ccc(-c2cc(-c3ccnc(N)c3)nc(=O)[nH]2)c(OC)c1	–	1000	–
O=c1nc(-c2ccncc2)cc(-c2cccc(Cl)c2)[nH]1	–	> 13000	–

Results, then the compound that gave them:

half-life [1] [min]	IC50 [2] [nM]	GI50 (A549) [nM]	SMILES
4	30	> 10000	O=c1nc(-c2ccc(O)cc2)cc(-c2ccccc2)[nH]1
–	6	–	O=c1nc(-c2ccc3[nH]ncc3c2)cc(-c2cccc(OCc3ccccc3)c2)[nH]1
–	100	–	CCc1ccc(-c2cc(-c3ccc4n[nH]cc4c3)nc(=O)[nH]2)cc1
–	40	–	O=c1nc(-c2ccc3[nH]ncc3c2)cc(-c2ccc(N3CCNCC3)cc2)[nH]1
–	10	–	O=c1nc(-c2ccc3[nH]ncc3c2)cc(-c2ccccc2F)[nH]1
–	110	–	O=c1nc(-c2ccc3[nH]ncc3c2)cc(-c2cccc(C(F)(F)F)c2)[nH]1
–	5	600	O=c1nc(-c2ccc3[nH]ncc3c2)cc(-c2cccc(Cl)c2)[nH]1
